What was measured:
[1] = biological target: T1, Human Prostaglandin H2 Synthase Typ II (Cox-2) (Homo sapiens, UniProt P35354); experiment: Human Prostaglandin H2 Synthase Typ II (Cox-2) Whole Cell Assay, ECV-304 cells (Procedure III); assay type: cell-based; settings: ECV-304 whole cells, PGE2 produced; read-out: Procedure III (COX-2) Wh Cell IC50
T1 construct: endogenous in cells; host or cells: ECV-304 cells treated with PMA and ionomycin for 16 hours
T1 sequence (P35354 18-604): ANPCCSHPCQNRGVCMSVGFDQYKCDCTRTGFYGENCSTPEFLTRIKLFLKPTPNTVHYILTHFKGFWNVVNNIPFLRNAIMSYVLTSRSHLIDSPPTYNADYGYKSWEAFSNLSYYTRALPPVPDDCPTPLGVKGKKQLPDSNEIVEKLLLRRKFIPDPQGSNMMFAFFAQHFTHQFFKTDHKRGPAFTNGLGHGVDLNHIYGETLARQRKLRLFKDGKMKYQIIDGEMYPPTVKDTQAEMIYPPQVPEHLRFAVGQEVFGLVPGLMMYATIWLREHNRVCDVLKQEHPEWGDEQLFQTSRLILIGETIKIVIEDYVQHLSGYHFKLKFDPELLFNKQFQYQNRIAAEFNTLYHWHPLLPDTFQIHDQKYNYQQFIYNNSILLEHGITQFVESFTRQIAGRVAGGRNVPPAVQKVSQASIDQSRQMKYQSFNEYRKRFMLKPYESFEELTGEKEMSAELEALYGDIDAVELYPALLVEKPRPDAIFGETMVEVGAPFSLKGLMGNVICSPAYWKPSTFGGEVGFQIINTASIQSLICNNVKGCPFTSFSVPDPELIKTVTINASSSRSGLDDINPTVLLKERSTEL
Protocol: Human Prostaglandin H2 Synthase Typ II (Cox-2) Whole Cell Assay (Multiple Concentrations)
ECV-304 (human, endothelial, umbilical cord) cells are maintained in culture in a suitable medium, and are trypsinized and plated at a density of 1×10^6 cells per well of a 6 well plate prior to assay. Approximately 28 hours later, 50 μg/ml PMA and […] ionomycin (both final concentrations) are added to each well and incubated for an additional 16 hours. Vehicle or test compounds are incubated with the cells for five minutes prior to initiation of Cox-2 enzyme activity by the addition of 30 μM arachidonic acid. Ten minutes later, an aliquot of the supernatant is withdrawn and the amount of PGE2 present quantitated by radioimmunoassay. Activity, reported as percent inhibition of PGE2 produced, is calculated as follows: […]

[2] = test system: inflammatory cells (leukocyte influx); experiment: Carrageenan-induced inflammation in subcutaneous chambers in beagle dogs: cellular (leukocyte) influx (Procedure IV); assay type: in vivo; settings: oral
Protocol: Carrageenan-Induced Localized Inflammation In Subcutaneous Chambers Implanted In Beagle Dogs
Sterile perforated teflon chambers (wiffle golf balls) were surgically implanted subcutaneously in the dorsal neck fold of beagle dogs (8-13 kg, mixed sex). After a recovery period of 1 month, a 1 ml sample of fluid exudate from each dog was aspirated from within the chamber using a 1 ml syringe and 20 gauge 1 inch needle inserted through one of the perforations in the ball. Immediately after obtaining the sample, 1.5 ml of 0.33% sterile carrageenan lambda (Sigma Chemical Co., St. Louis, Mo.) was injected into the chamber. Dilutions of the baseline samples were made in saline and analyzed for leukocyte count using a Coulter Counter (6.08-50 μm range). The sample was also analyzed for concentrations of PGE2 and LTB4 by adding 200 μl of sample to 1 ml ethanol and centrifuging the precipitate (1,500 X g, 7 min). The supernatant was aspirated and stored at 0° C. until enzyme linked immunosorbant assays (ELISAs) were performed (ELISA Technologies, Lexington, Ky.). […]
Drug effects can be evaluated on several important aspects of inflammation using this in-vivo assay. […] Selectivity of a COX inhibitor can be determined by comparing PGE2 inhibition in peripheral blood (COX-1) to that of the inflammatory fluid exudate in the chamber (COX-2).

IC50 [1]: 1810 nM
Structure (SMILES): CS(=O)(=O)Nc1ccc(Oc2ccc(F)cc2)s1 [Example 1]
ED50 ([2]; Canis lupus familiaris, Leukocyte, inflammatory chamber exudate, read-out: ED50 for inhibition of cellular influx): < 0.01 mg/kg | inhibition of accumulation of inflammatory cells in the exudate ([2]; inflammatory chambers): dose related inhibition
